From patent publication US7595294B2, “Vasoactive intestinal polypeptide pharmaceuticals” (Transition Therapeutics, Inc., priority 2004, dated 2009) come the findings set out here.

For one assay, the system named is db/db mice. Nature of the assay: In vivo bioassay: blood glucose in db/db mice after intraperitoneal injection. To be noted: for Mean Blood Glucose Levels: i.p.; for Activity (reduced plasma glucose), in words: high dose. The protocol: Tested Study Groups. Naïve, 8 weeks old female db/db mice were acclimated for one week, during which period animals were handled periodically to allow them to be acclimated to experiment procedures. Study groups contained 6 mice per group and were administered with one of the following by intraperitoneal injection:
(2) Positive control (exendin-4 or other standard treatment);
(3) Polypeptide Analog at high dose; or
(4) Polypeptide Analog at low dose.
A small volume of blood was taken from a cut at the tip of tail for blood sampling. Blood glucose levels were determined on a commercial, hand-held glucose meter. On Day 1, animals were injected with polypeptide analogs and controls in the morning. Blood samples were taken and analyzed immediately before injection and at 2, 4, 8, 14, and 24 hours after injection. Animals were allowed to feed, ad libitem, throughout the assay (Tsutsumi et al., Diabetes 51:1453-60 (2002)).

Another assay relates to Rat islets. Put plainly: In vitro bioassay with islet cell static cultures (insulin secretion, ELISA). Type of assay: cell-based. To be noted: for Insulin secreted: Table 2, 120 min incubation; for Concentration at which maximal activity was exhibited in the assay: islet static culture, insulin secretion; for Average Insulin secreted: Table 3. As to the method:
Islet isolation. […] Generally, the islets were prepared by injecting collagenase (10 mL of 0.23 mg/mL Liberase, Roche Molecular Biochemicals, Indianapolis, Ind.) into the pancreatic duct of the partially dissected pancreas and surgically removing it. All procedures were approved by the Institutional Animal Care and Use Committee at the University of Washington.
The pancreata were placed into 15 mL conical tubes containing 5 mL of 0.23 mg/mL Liberase and incubated at 37° C. for 30 min. The digestate was then filtered through a 400-micrometer stainless steel screen, rinsed with Hanks' buffered salt solution, and purified in a gradient solution of Optiprep (Nycomed, Oslo, Norway).
Bioassay. Islets were picked under a microscope and placed into 10 ml 3 mM Krebs Ringer Buffer (KRB) solution for washing. Islets were incubated in 3 mM glucose KRB for 60 min and then groups of 10 islets per well were placed into 200 μl media in a 96-well plate. […] The buffer conditions were KRB with 0.1% BSA, 20 mM HEPES and the assay was performed in quadruplicate. Supernatants were evaluated for insulin content using a commercial insulin enzyme-linked immunosorbent (ELISA) assay per manufacturer's directions.

The mark [1] stands for this setting: High dose, 0 hr (immediately before injection).
[2] abbreviates: High dose, 2 hr after injection.
Setting [3] is: High dose, 4 hr after injection.
Where [4] appears, read: High dose, 8 hr after injection.
Where [5] appears, read: High dose, 14 hr after injection.
Where [6] appears, read: High dose, 24 hr after injection.
Where [7] appears, read: Low dose, 0 hr (immediately before injection).
[8] abbreviates: Low dose, 14 hr after injection.
[9] abbreviates: Low dose, 24 hr after injection.

Where no end group is shown, it is not given here.

Turning to “TP-103: exemplary synthetic polypeptide analog of PACAP/VIP, amino acid sequence SEQ ID NO: 2 (HSDAVFTDNYTRLRKQVAAKKYLNSIKKGKRELLEKLLRKLK; ends and bridges not checked)”, the “Mean Blood Glucose Levels” value was 20.7 mmol/L in the assay with db/db mice (setting [1]); 17.3 mmol/L in the assay on db/db mice (setting [2]); 16.9 mmol/L in the assay with db/db mice (setting [3]); 23.4 mmol/L in the assay with db/db mice (setting [4]); 23.7 mmol/L in the assay with db/db mice (setting [5]); 25.0 mmol/L in the assay with db/db mice (setting [6]). Moreover, the “Mean Blood Glucose Levels” value in the assay with db/db mice (setting [7]) came out at 22.9 mmol/L; in the assay with db/db mice (Low dose, 2 hr after injection), 20.5 mmol/L; with db/db mice (Low dose, 4 hr after injection), 17.6 mmol/L; in the assay with db/db mice (Low dose, 8 hr after injection), 26.4 mmol/L; with db/db mice (setting [8]) it was 24.6 mmol/L; with db/db mice (setting [9]), 21.4 mmol/L.

For “TP-106: highly hydrophobic polypeptide analog, designed to depot in the site of sc injection; SEQ ID NO: 5 (HSDAVFTDNYTRLRKQVAAKKYLNSIKKGKRELLEKLK)”, the results for the Insulin secreted in the assay with Rat islets (50 nM peptide + 16 mM glucose) and in the assay with Rat islets (200 nM peptide + 16 mM glucose) were 2.72 ng/100 islets/min and 5.20 ng/100 islets/min, respectively. For the same substance, the “Concentration at which maximal activity was exhibited in the assay” value in the assay on Rat islets is 200 nM. Moreover, the “Mean Blood Glucose Levels” value in the assay with db/db mice (setting [1]) worked out at 21.8 mmol/L; in the assay on db/db mice (setting [2]), 13.4 mmol/L; with db/db mice (setting [3]), 14.7 mmol/L; in the assay with db/db mice (setting [4]), 25.1 mmol/L; in the assay with db/db mice (setting [5]) it was 26.3 mmol/L; with db/db mice (setting [6]), 21.2 mmol/L. Also, the “Mean Blood Glucose Levels” value is given as 23.9 mmol/L in the assay with db/db mice (setting [7]); 20.5 mmol/L in the assay on db/db mice (Low dose, 2 hr after injection); 16.1 mmol/L with db/db mice (Low dose, 4 hr after injection); 24.0 mmol/L in the assay with db/db mice (Low dose, 8 hr after injection); 28.2 mmol/L in the assay with db/db mice (setting [8]); 23.2 mmol/L with db/db mice (setting [9]). Further, the “Activity (reduced plasma glucose), in words” value is given as “statistically significant activity” with db/db mice (2 hr after injection) and “maintains activity” in the assay with db/db mice (4 hrs post dosing).

Turning to “TP-107: exemplary synthetic polypeptide analog of PACAP/VIP, amino acid sequence SEQ ID NO: 6 (HSDAVFTDNYTRLRKQVAAKKYLNWIKKAKRELLEKLK; ends and bridges not checked)”, the “Average Insulin secreted” value with Rat islets (10 nM peptide + 16 mM glucose) is recorded as 2.89 ng/100 islets/min; with Rat islets (100 nM peptide + 16 mM glucose), 6.10 ng/100 islets/min; with Rat islets (1 uM peptide + 16 mM glucose), 6.07 ng/100 islets/min. Also, the “Concentration at which maximal activity was exhibited in the assay” value in the assay with Rat islets turned out to be 100 nM.

Take “TP-108: exemplary synthetic polypeptide analog of PACAP/VIP, amino acid sequence SEQ ID NO: 7 (HSDAVFTDNYTRLRKQLAAKKYLNSIKKGKRLLRKLQPPPK; ends and bridges not checked)”: the “Average Insulin secreted” value in the assay with Rat islets (100 nM peptide + 16 mM glucose) is on record as 4.10 ng/100 islets/min; with Rat islets (1 uM peptide + 16 mM glucose) it was 5.65 ng/100 islets/min.
